Read-outs that look alike come from different tables or passages of the source. Each block holds one molecule with its values, some of them ahead of it.
Columns and labels:
[1] = system: MOLM-14 cells (FLT3-ITD); assay: CellTiter-Glo cell viability (single agent and combination); format: cell-based; settings: for IC50: Homo sapiens, MOLM-14, 72 h, 72 hours, read-out: EC50 (cell viability); for combination index (CI) of AML drug in combination with MPC-0767: MOLM-14, 72 hours, average CI (* n=1)
Description: HS-5 is a human marrow stromal cell line that secretes various growth factors sufficient to support hematopoietic progenitor growth (Roecklein et al., Blood, 1995) which thus mimics stromal conditions.
(§1) Three cell lines which harbor FLT3-ITD were used for the drug combination studies (MV-4-11, MOLM-13, and MOLM-14).
(§2) Cells were treated with the drugs (single agent or combination) for 72 hours. Drug combination activity was determined by first measuring cell viability with CellTiter-Glo®, followed by the calculation of the EC50 corresponding to single agent activity, using the R DRC package (R Core Team, 2017). The combination index (CI) values were computed using the Chou-Talalay method (Chou T, Cancer Research., 2010 70(2): 440-6.), based on the viability of each drug alone and in combination, across all concentrations tested. In brief, CI was defined as: […]
(§3) Loss of function mutations of KDM6A are observed in FLT3-ITD AML (Garg et al., 2015 Blood 126 (22):2491-501). […] To therapeutically exploit this finding, we hypothesized that inhibiting EZH2, the histone H3K27 methyltransferase that functionally opposes KDM6A, would enhance sensitivity to MPC-0767. To test this hypothesis, a FLT3-ITD cell line (MV-4-11) was used and treated with either of the two clinical stage EZH2 inhibitors, EPZ-6438 and CPI-1205, at 8 different concentrations for 4 days. Following this time, cells were counted, reseeded and treated with 8 concentrations of EZH2 inhibitor alone, 8 concentrations of MPC-0767 alone, or the combination of the two (64 total combinations).

[2] = system: MOLM-13 cells (FLT3-ITD); assay: CellTiter-Glo cell viability (combination); format: cell-based, human; settings: MOLM-13, 72 hours, average CI
Description: as §1, §2

[3] = system: MOLM-13 FLT3-ITD AML cell line; assay: Systemic survival xenograft study, MPC-0767 with 5′azacitidine; settings: single agents: MPC-0767 75 mg/kg p.o.; 5′azacitidine 2 mg/kg QD×4 i.p.; vs vehicle
Description: A systemic survival xenograft study was performed using the MOLM-13 FLT3-ITD harboring AML cell line.
Before tumor cell inoculation, NOD/SCID mice were pre-treated for 2 days with a daily intraperitoneal injection of 100 mg/kg cyclophosphamide to facilitate engraftment of the human MOLM-13 tumor cells. After the injection of cyclophosphamide, the animals were allowed to recover for 24 hours prior to inoculation with human MOLM-13 tumor cells. Each mouse was then inoculated with 1×10^7 MOLM-13 cells in 100 μL PBS via intravenous tail vein injection. Mice were next randomized into 4 groups of 6 mice each. […] Viability and body weight loss were monitored daily.

[4] = system: phospho-S6 in MOLM-13 cells; assay: Phospho-S6 by flow cytometry; format: cell-based, human; settings: MOLM-13; MPC-0767 800 nM, ATO 625 nM or combination; 24 hours
Description: (§4) To determine whether MPC-0767 can promote the degradation of FLT3-ITD and abolish downstream signaling, MV-4-11 and MOLM-13 cells were treated with vehicle or MPC-0767 (1 μM) for 24 hours. Cells were harvested for flow cytometry to assess cell surface FLT3 protein abundance. In addition, the measurement of a key phosphorylation site of S6 (phospho-S6) was used as a marker for oncogenic FLT3-ITD signaling (Zimmerman et al., Blood. 2013 122(22): 3607-3615). Indeed, in both MV-4-11 and MOLM-13 cells treated with MPC-0767 there was a >65% reduction in cell surface FLT3 (FIGS. 10A and 10B, respectively) and >70% reduction in phospho-S6 (FIGS. 10C and 10D, respectively).
(§5) We next explored whether the synergistic activity of MPC-0767 and ATO was due to a more complete abrogation of FLT3-ITD oncogenic signaling. […] After this time cells were harvested for the assessment of cell surface FLT3 expression by flow cytometry. To additionally measure the effects of abrogating FLT3, we assessed phospho-ERK (pERK) and phospho-S6 (pS6), as these are two known downstream effectors.

[5] = system: phospho-ERK (pERK) in MOLM-13 cells; assay: Phospho-ERK level; format: cell-based, human; settings: MPC-0767 800 nM, ATO 625 nM or combination, 24 hours
Description: as §5

[6] = system: cell surface FLT3 in MOLM-13 cells; assay: Cell surface FLT3 by flow cytometry; format: cell-based, human; settings: MOLM-13; MPC-0767 800 nM, ATO 625 nM or combination; 24 hours
Description: as §4, §5

[7] = system: MV-4-11 cells (FLT3-ITD); assay: CellTiter-Glo cell viability (single agent and combination); format: cell-based; settings: MV-4-11, 72 hours, average CI
Description: as §1, §2, §3

[8] = cited from earlier work
[9] = system: PD-1+ Jurkat reporter cells with THP-1 AML cells; assay: Jurkat NFAT-luciferase reporter T cell activation with THP-1 cells; format: cell-based; settings: THP-1 treated 24 hr with IFNγ 50 ng/ml; PD-L1 blocking antibody added
Description: The addition of antibodies that block the PD-1/PD-L1 pathway stimulate an increased T cell response in vitro, in pre-clinical animal models, and in cancer patients. This can lead to tumor regressions or tumor clearance in patients. To examine MPC-0767 effects on PD-L1 and T cell activation, we used a model system in which PD-1+ Jurkat T cells express luciferase under the control of the NFAT promoter (Promega, hereafter referred to Jurkat reporter cells). When T cells are stimulated through the T cell receptor (TCR), activation of the NFAT pathway drives expression of luciferase.
We next determined whether MPC-0767 reduction of PD-L1 could increase T cell stimulation similar to anti-PD-L1 blocking antibodies. THP-1 cells were treated overnight with IFNγ in the presence or absence of MPC-0767 (1 μM or 2 uM). THP-1 cells were washed and a portion saved for flow cytometry analysis of PD-L1 expression. The remaining cells were incubated with Jurkat reporter cells and anti-CD3 (10 ng/ml) for 6 hours.

[10] = system: BaF3 cells harboring FLT3-ITD F691L; assay: CellTiter-Glo cell viability; format: cell-based, murine
Description: (§6) EC50 values were calculated using equation 1 (as described above).

[11] = system: MOLM-13-LUC cells; assay: CellTiter-Glo cell viability; format: cell-based; settings: Homo sapiens, 72 hours
Description: (§7) In the clinic, tyrosine kinase inhibitors that target FLT3 initially show positive responses, but patients inevitably relapse due to the development of drug-resistance through various mechanisms, as discussed above.

[12] = system: MOLM-13-R-PKC412 (midostaurin-resistant) cells; assay: CellTiter-Glo cell viability; format: cell-based, human
Description: as §7

[13] = system: BaF3 cells harboring FLT3-ITD; assay: CellTiter-Glo cell viability; format: cell-based, murine; settings: Mus musculus, 72 hours
Description: After this time cell viability was determined using CTG and EC50 values determined.
as §6
BaF3 cells require the supplementation of IL-3 to activate the IL-3 receptor for growth. However, in BaF3 cells transfected with FLT3-ITD, cells no longer require IL3 as survival is solely driven by oncogenic FLT3 signaling.

[14] = MOLM-14, stromal media (HS-5 conditioned)

IC50 ([1]; MOLM-14, non-stromal media): 6 nM
IC50 [1, 14]: > 100 nM
Molecule: CCc1nc(C(N)=O)c(Nc2ccc(N3CCC(N4CCN(C)CC4)CC3)c(OC)c2)nc1NC1CCOCC1 [gilteritinib]
combination index (CI) of AML drug in combination with MPC-0767 [2]: CI = 0.9

Molecule: Nc1ncn([C@@H]2O[C@H](CO)[C@@H](O)[C@H]2O)c(=O)n1 [5′azacitidine, reference compound]
increase in median survival [3]: 8 days

Molecule: arsenic trioxide [ATO, reference compound]
pS6 level [4]: reduced
pERK level [5]: mildly reduced
FLT3 level (cell surface) [6]: reduced

Molecule: CC1(C)CCC(CN2CCN(c3ccc(C(=O)NS(=O)(=O)c4ccc(NCC5CCOCC5)c([N+](=O)[O-])c4)c(Oc4cnc5[nH]ccc5c4)c3)CC2)=C(c2ccc(Cl)cc2)C1 [Venetoclax, venetoclax]
combination index (CI) of AML drug in combination with MPC-0767 [1]: CI = 0.6
combination index (CI) of AML drug in combination with MPC-0767 [7]: CI = 0.7
combination index (CI) of AML drug in combination with MPC-0767 ([7]; listed as venetoclax): 0.7
combination index (CI) of AML drug in combination with MPC-0767 [2]: CI = 0.3
combination index (CI) of AML drug in combination with MPC-0767 ([2]; listed as venetoclax): 0.3

Molecule: Nc1ccn([C@@H]2O[C@H](CO)[C@@H](O)[C@@H]2O)c(=O)n1 [Cytarabine, cytarabine]
combination index (CI) of AML drug in combination with MPC-0767 [1]: CI = 0.9*
combination index (CI) of AML drug in combination with MPC-0767 [7]: CI = 0.8

Molecule: C[C@H](O)C(=O)N1CCC(CCn2c(Sc3cc4c(cc3Br)OCO4)nc3c(N)ncnc32)CC1 [MPC-3100, (2S)-1-[4-(2-{6-Amino-8-[(6-bromo-1,3-benzodioxol-5-yl)sulfanyl]-9H-purin-9-yl}ethyl)piperidin-1-yl]-2-hydroxypropan-1-one, reference compound]
aqueous solubility [8]: poor solubility

Molecule: atezolizulmab: PD-L1 blocking antibody
T cell activation (luciferase) [9]: restores T cell activation to untreated levels

EC50 ([10]; Mus musculus, BaF3 FLT3-ITD-F691L, 72 hours): 90 nM
EC50 [11]: 9 nM
IC50 ([1]; MOLM-14, non-stromal media): 3 nM
IC50 [1, 14]: > 100 nM
EC50 ([12]; Homo sapiens, MOLM-13-R-PKC412, 72 hours): 25 nM
fold difference in EC50, midostaurin-resistant vs control cells ([12]; MOLM-13-R-PKC412 vs MOLM-13-LUC): approximately 3 fold
EC50 [13]: 4 nM
Molecule: CC1(COc2ccc3c(c2)ncn3-c2ccc3cccc(N4CCC(N)CC4)c3n2)COC1 [crenolanib]
fold resistance, FLT3-ITD-F691L vs FLT3-ITD ([10]; BaF3, 72 hours): approximately 23 fold
combination index (CI) of AML drug in combination with MPC-0767 [7]: CI = 0.7
combination index (CI) of AML drug in combination with MPC-0767 [2]: CI = 0.9

Molecule: CNC(=O)c1cc(Oc2ccc(NC(=O)Nc3ccc(Cl)c(C(F)(F)F)c3)cc2)ccn1 [Sorafenib, sorafenib]
combination index (CI) of AML drug in combination with MPC-0767 [7]: CI = 0.8
